{
  "source": "paper PMC7906907",
  "about": "“Targeting STAT3 by a small molecule suppresses pancreatic cancer progression” (Oncogene, 2021)",
  "key": {"[1]": {"target": "T1, STAT3-SH2 (Homo sapiens, UniProt P40763)", "T1 construct": "made in house", "T1 sequence (P40763 580-670 limits assumed)": "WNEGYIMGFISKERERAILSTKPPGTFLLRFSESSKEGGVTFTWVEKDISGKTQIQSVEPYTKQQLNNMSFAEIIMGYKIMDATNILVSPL", "experiment": "Microscale thermophoresis (MST) assay, STAT3-SH2", "format": "binding", "excerpt": "(§1) Fig. 3 N4 interacts with the STAT3-SH2 domain and interferes with the STAT3-EGFR and STAT3-NF-κB interactions. […] C–E The binding between N4 and STAT3 was examined in (C) SPR and (D) MST experiments. His-STAT3^127-722 protein was purified and used to examine the affinity between STAT3 and N4. (E) The binding between N4 and STAT3^SH2 was confirmed in MST assays. STAT3-SH2 protein was purified and labeled. N4 was serially diluted and mixed with equal volumes of labeled STAT3^SH2 protein. The MST signal was measured, and the data were analyzed by MO analysis software. F, G The FLAG-tag and HA-tag STAT3 expression plasmid was transfected into 293 T cells, followed by the addition of the indicated concentrations of N4. After 24 h, cells were lysed, and immunoprecipitation experiments were performed as described in Materials and Methods. H N4 represses STAT3 dimerization in pancreatic cancer cells. I After a 24 h treatment with 2 μM N4, pancreatic cancer cells were stimulated with IL-6 for 30 min. Cell lysates were immunoprecipitated with STAT3 overnight. […]\nThe MST assay was previously described. Binding affinities of N4 with the purified His-STAT3-SH2 were measured using the Monolith NT.115 device (NanoTemper Technologies). […] The samples were then loaded into premium capillaries (NanoTemper Technologies) and measured using the Monolith NT.115 device. […]"}, "[2]": {"target": "T2, STAT3-NF-κB complex (Homo sapiens, UniProt P40763)", "T2 construct": "endogenous in cells; host or cells: PANC-1", "T2 sequence (P40763 2-770 limits assumed, one chain of several)": "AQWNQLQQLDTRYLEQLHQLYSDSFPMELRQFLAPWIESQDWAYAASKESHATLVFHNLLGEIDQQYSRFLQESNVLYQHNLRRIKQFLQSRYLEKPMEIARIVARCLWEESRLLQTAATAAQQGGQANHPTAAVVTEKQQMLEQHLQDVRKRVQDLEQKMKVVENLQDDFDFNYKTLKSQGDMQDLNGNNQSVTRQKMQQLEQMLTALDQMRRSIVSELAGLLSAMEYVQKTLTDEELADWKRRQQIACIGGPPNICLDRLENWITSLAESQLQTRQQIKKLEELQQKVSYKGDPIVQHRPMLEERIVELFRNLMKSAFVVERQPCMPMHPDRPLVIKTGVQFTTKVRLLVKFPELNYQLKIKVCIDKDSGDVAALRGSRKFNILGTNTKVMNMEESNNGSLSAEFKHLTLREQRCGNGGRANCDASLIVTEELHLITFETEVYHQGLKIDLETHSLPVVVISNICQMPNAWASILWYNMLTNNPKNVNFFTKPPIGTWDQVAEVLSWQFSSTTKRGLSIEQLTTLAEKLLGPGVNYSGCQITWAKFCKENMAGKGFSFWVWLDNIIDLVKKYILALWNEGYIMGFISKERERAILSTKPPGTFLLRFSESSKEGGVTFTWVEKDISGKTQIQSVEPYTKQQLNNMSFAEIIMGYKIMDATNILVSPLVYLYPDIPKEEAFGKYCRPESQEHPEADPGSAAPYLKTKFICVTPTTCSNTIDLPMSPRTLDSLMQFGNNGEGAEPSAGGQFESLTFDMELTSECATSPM", "experiment": "Co-immunoprecipitation, STAT3-NF-κB interaction", "format": "cell-based", "conditions": "PANC-1 cells, 2 μM, 24 h", "excerpt": "as §1, with “overnight. The precipitates were washed, suspended in non-reducing sample buffer, and boiled for 10 min. The indicated antibodies were used for western blot assays.” for “overnight.”\nCo-IP was performed as previously described. […] After overnight incubation, the precipitates were washed and analyzed using western blotting."}, "[3]": {"tested_on": "Pancreatic cancer cells", "experiment": "Trans-well migration", "format": "cell-based", "procedure": "independent assays; *P < 0.05, **P < 0.01, ***P < 0.001, ****p < 0.0001 by one-way ANOVA followed by multiple comparisons. (C) Pancreatic cancer cells were seeded in the top chamber of Trans-well inserts and treated with N4 the following day. The lower chamber was fixed, stained, and photographed. Experiments were carried out in triplicate with identical results obtained. Data shown as mean ± SD; **P < 0.01, ****p < 0.0001 by Student’s t-tests. Scale bar, 100 μm."}, "[4]": {"tested_on": "PANC-1 cells", "experiment": "PANC-1 shNC / shSTAT3 xenograft with drug withdrawal", "format": "in vivo, Mice", "excerpt": "To provide further evidence that STAT3 is the direct target of N4, we constructed two STAT3 stable knockdown cell lines by the short hairpin RNA (shRNA) (Supplementary Fig. S10A), and the sequence of shRNA was list in Supplementary Table S3. […] At the meantime, the effect of drug withdrawal on tumor volume and weight was also examined. After 20 days of treatment, all the drug or vehicle were removed and the tumor was allowed to grow for another 12 days. […] Thus, N4 kept the suppression on tumor growth compared to vehicle group during the drug withdrawal period.\nSupplementary Figure 10. STAT3 knockdown cells are resistant to N4 in vivo. (A) PANC-1 cells were transfected with shRNA that targeted STAT3 or negative control, and the knockdown efficiency was examined by western blot. (B) Mice bearing the PANC-1 cells within STAT3 stable knockdown (shSTAT3-1#) or negative control (shNC), and administration N4 or vehicle (control) every day by i.p. After 20 days treatment, the N4 and vehicle were removed for another 12 days. Then the mice were sacrificed and the tumor was removed and photographed (n=5 per group). (C) The tumor volume was measured every 3-4 days and the volume was calculated by the formula: length × width2 ×0.52, data are shown as mean ± SD, ****P < 0.0001 and n.s., not significant by one-way ANOVA followed by multiple-comparison tests. (D) After […]"}},
  "data": [
    {"compound": "COc1cc2c(cc1C(=O)Nc1cccc3cccnc13)CCC1C(C)(C)C(=O)C(C#N)=C[C@]21C", "note": "(some centres unmarked) [N4]", "values": [
      {"measurement": "Kd", "setting": "[1]", "value": 1.01, "unit": "µM"},
      {"measurement": "interaction between STAT3 and NF-κB", "setting": "[2]", "value": "blocked"},
      {"measurement": "pancreatic cancer migration", "setting": "[3]", "value": "efficiently blocked"},
      {"measurement": "sensitivity of STAT3 stable knockdown cells to treatment", "setting": "[4]; compared with control cells", "value": "not sensitive"},
      {"measurement": "increase in tumor volume during the drug withdrawal period", "setting": "[4]; shNC-N4 group, 20 days treatment i.p., then 12 days withdrawal", "value": 249.49, "unit": "mm^3"}
    ]}
  ]
}
